4 compounds from patent publication US20050282258A1 (priority 2004, published 2005) can be followed below.

Read-outs that look alike come from different tables or passages of the source.

One test deals with yggA transcription. It is filed as cell-based, Escherichia coli. As to conditions: for Beta-galactosidase specific activity (units) in medium with 1 mM arginine / Beta-galactosidase specific activity (units) in medium with 1 mM lysine: glucose-minimal A medium, 37° C.; for transcription of the yggA gene upon supplementation of the culture medium: strains carrying the wild-type argP gene.

Test [1] relates to wild-type E. coli strain MC4100. Put plainly: Canavanine tolerance of strains, growth in glucose-minimal A medium. Type of test: cell-based, Escherichia coli. As to conditions: scored after 24 hours at 37° C.
Setting [2] is: strain GJ4748/pHYD956 (argR), Nil = 217.
[3] abbreviates: strain MC4100/pHYD926/pHYD956 (argP-S94L), Nil = 1557.
Where [4] appears, read: strain MC4100/pHYD956, Nil = 20.

With `N=C(N)NCCC[C@H](N)C(=O)O` [arginine], the entries for the “Beta-galactosidase specific activity (units) in medium with 1 mM arginine” value with yggA transcription (setting [2]), with yggA transcription (setting [3]) and in the test with yggA transcription (setting [4]) were 424 units, 1514 units and 66 units, respectively. For the same compound, in the test with yggA transcription, the “transcription of the yggA gene upon supplementation of the culture medium” value (“transcription” for short) was “induced”.

In the case of `N=C(N)NOCC[C@H](N)C(=O)O` [canavanine], the “transcription” value with yggA transcription is “induced”. Further, the “growth of MC4100 (canavanine tolerance)” value in test [1] (20 micrograms/ml of canavanine) is “resistant”; in test [1] (65 micrograms/ml of canavanine in the presence of uracil at 40 micrograms/ml) it was “sensitive”.

In the case of `NC(=O)NCCC[C@H](N)C(=O)O` [citrulline], in the test with yggA transcription, the “transcription” value was “induced”.

As for `NCCCC[C@H](N)C(=O)O` [lysine], the entries for the “Beta-galactosidase specific activity (units) in medium with 1 mM lysine” value with yggA transcription (setting [2]), in the test with yggA transcription (setting [3]) and in the test with yggA transcription (setting [4]) were 29 units, 1616 units and 14 units, respectively. Besides, the “transcription” value in the test with yggA transcription is given as “substantially repressed”.
